These results are taken from patent publication US20240216412A1, “OXIDIZED NICOTINAMIDE ADENINE DINUCLEOTIDE (NAD+) PRECURSOR TREATMENT FOR HEART FAILURE ALLEVIATION INDEPENDENT OF MITOCHONDRIAL PROTEIN DEACETYLATION” (University of Washington, priority 2022, published 2024).

The test system of test [1] is retinol oxidation by SDRs. The experiment in a line: Retinoid measurements in heart tissue (LC-MS/MS). The following applies: TAC hearts, WT and Sirt3Ko mice. It counts as in vivo, mouse. The source says: Retinoid measurements. Analysis of all-trans-retinyl ester palmitate (RP), all-trans,-retinol (ROL) was done in collaboration with Dr. Nina Isoherranen laboratory using previously established methods (Czuba et al., 2020). RP, ROL were purchased from Toronto Research Chemicals (North York, ON), and retinyl ester palmitate-d4 (RP-d4) and all-trans-retinol-d6 (ROLd6) were purchased from Cambridge Isotopes (Andover, MA). Blank human serum (DC MASS SPECT GOLD MSG4000) for standard curve and quality control matrix was purchased from Golden West Diagnostics (Temecula, CA). Solvents for liquid chromatography tandem mass spectrometry (LC-MS/MS) were Optima LC-MS grade and purchased from Fisher Scientific (Pittsburgh, PA). […]
RP and ROL concentrations were determined on an AB Sciex 5500 QTRAP mass spectrometer (AB Sciex, Foster City), coupled with an Agilent 1290 UHPLC (Agilent, Santa Clara, CA) using a Ascentis Express RP-amide column (2.1×150 mm, […]) and guard column (2.1×5 mm, 2.7 μm). […]
RP and ROL were detected in positive ion mode atmospheric pressure chemical ionization (APCI) mode using selected reaction monitoring (SRM). […] The CE was 25 V, DP was 60 V, entrance potential was 10 V, and collision exit potential was 10 V. Peaks were integrated and quantified using MultiQuant 2.1.1 (AB Sciex, Foster City, CA). […]

The test system of test [2] is mitochondrial protein acetylation; Mrpp2, mt-Cox1, mt-Nd1 protein levels. The test can be described thus: Western blot of cardiac mitochondrial protein acetylation and of Mrpp2, mt-Cox1, mt-Nd1. It is filed as in vivo, mouse. As for the experimental part:
Western blot. For Western blot procedures cardiac tissues were homogenized with RIPA buffer (ThermoScientific Pierce RIPA Buffer #89900) and protease inhibitors (Roche Cat. No. 11-836-170-001) using bullet blender at 4° C. for 10 minutes. Protein concentrations of supernatants were collected after centrifugation and quantified using Pierce™ BCA® Protein Assay Kits and Reagents (#23225). Protein lysates in Lammeli sample buffer were loaded to 10% SDS-PAGE, transferred to PVDF membrane and blocked with 5% BSA in TSBT. Specific proteins were detected by specific antibodies listed above and corresponding secondary antibodies. Signals were visualized by HRP derived chemiluminescence (Amersham ECL Western Blotting Detection System #RPN2106) and film. Protein levels were quantified by Image-J.
Mitochondrial Isolation from cardiac tissue. Hearts were excised from mice, the aortas and atria were removed. Heart tissues were rinsed briefly in ice-cold mitochondria isolation medium (MIM) (70 mM sucrose, 220 mM mannitol, 5 mM MOPS, 1 mM EDTA, 0.025% fatty acid-free BSA, pH 7.4 with 5M KOH) to remove residual blood. Tissues were minced on ice and resuspended in fresh MIM, followed by trypsin digestion (10 ug/ml) and incubated on ice for 10 min. Trypsin digestion was stopped by the addition of trypsin inhibitor (0.5 mg/ml) and additional BSA (1 mg/ml) to MIM. The tissue pellets were resuspended in fresh MIM containing 1 mg/ml BSA, and transferred to a Teflon-glass tube and homogenized on ice with a Teflon pestle. The homogenates were centrifuged for 10 min at 800×g at 4° C. The supernatants were collected and centrifuged for 10 min at 8,000×g at 4° C. The supernatant was discarded and the mitochondrial pellets were resuspended in MIM to wash. The resuspension was centrifuged for 10 min at 8,000×g at 4° C., and the supernatant discarded. The mitochondrial pellet was resuspended to a concentrated volume for protein quantification by BCA Assay (Pierce).
Antibodies. Acetylated lysine antibody (Cell Signaling 9441s), Mrpp2 (Hsd17b10, ERAB) from Proteintech catalog number 10648-1-AP, Mrrp1 (Trmt10c) from Proteintech catalog number 29087-1-AP, Mt-C01 from Abcam [1D6E1A8] (ab14705), and Mt-Nd1 from Santa Cruz (C-18) catalog sc-20493, RXRα (Cell Signaling D6H10) Rabbit mAb, SirT3 (Cell Signaling D22A3) Rabbit mAb, ATP5B (E-1) Santa Cruz Biotechnology sc-55597.

Turning to `NC(=O)c1ccc[n+]([C@@H]2O[C@H](CO)[C@@H](O)[C@H]2O)c1` [NR, Nicotinamide riboside chloride], in test [1], the “Retinol and retinylpalmitate accumulation (bottleneck in SDR reactions)” value was “removed the “bottleneck””. For the same molecule, the Mitochondrial protein acetylation entry in test [2] (NR treated Sirt3Ko mice) is listed as “no change”. For the same molecule, the Mrpp2 protein level result in test [2] (NR treated TAC hearts) is “normalization”. For the same molecule, the “Protein levels of mt-Cox1 and mt-Nd1” value in test [2] (TAC hearts that received NR) was “preserved”. Further, the Mitochondrial protein hyperacetylation result in test [2] (WT control mice after TAC) is listed as “reversed the protein hyperacetylation”.
